Paper PMC5997322, “Imaging c-Met expression using 18F-labeled binding peptide in human cancer xenografts” (PLoS ONE, 2018)
Residues, ends and D or L forms follow the SMILES beside them. *: point of attachment. Propanoyl(2-F) = CC(F)C(=O)*

Tests used:
UM-SCC-22B cells [1] = experiment: Efflux experiment; assay type: cell-based, human; conditions: UM-SCC-22B cells loaded 1 h at 37°C, then serum-free DMEM
Description: (§1) For cell uptake measurement, UM-SCC-22B cells were seeded into a 24-well plate at a density of 1×10^5 cells per well and incubated with 18.5 kBq (0.5 μCi)/well of [^18F]FP-Met-pep1 at 37°C for 15, 30 and 60 min. Tumor cells were then washed twice with cold PBS and harvested by adding 250 μl of 0.1 N NaOH. Internalization assay was preformed similarly to the procedure described above. After 15, 30 and 60 min incubation of UM-SCC-22B cells with [^18F]FP-Met-pep1 at 37°C, the cells were washed twice with cold PBS and then incubated for 1 min with acid-washing-buffer (50 mM glycine, 0.1 M NaCl, pH = 2.8) to remove surface bound radioactive ligand. Thereafter, the cells were washed twice with cold PBS and harvested by adding 250 μl of 0.1 N NaOH. The blocking assay was preformed similarly to the procedure described above except that the unlabeled c-Met binding peptide was added into the wells (500 μg/well) and incubated for 15 min at 37°C before adding [^18F]FP-Met-pep1. For efflux experiment, all UM-SCC-22B cells in a 24-well plate were initially incubated with 18.5 kBq (0.5 μCi)/well of [^18F]FP-Met-pep1 at 37°C for 1 hour. […] The cell suspensions were collected and measured in a gamma counter and the cell uptake, internalization and efflux were expressed as the percentage of the added dose (%AD) after decay correction to EOB. […]

UM-SCC-22B cells [2] = experiment: Cell uptake and blocking of [18F]FP-Met-pep1; assay type: cell-based, human
Description: as §1

[3] = MicroPET imaging, ROI quantification; assay type: in vivo, mice; conditions: male, athymic nu/nu, mouse, iv, total radioactivity, 3.7 MBq i.v., mean ± SD, n = 4
Description: (§2) The human head and neck squamous carcinoma (HNSCC) cell line UM-SCC-22B (obtained from the University of Michigan) was used in this study. The cells were maintained in DMEM supplemented with 10% fetal bovine serum (FBS), 1% glutamine, 100 unit/ml penicillin, and […] streptomycin (Invitrogen, CA). Subcutaneous UM-SCC-22B tumor model was established in 4 to 6 weeks old male athymic nu/nu mice (Harlan Laboratories). Typically, 5 × 10^6 cells suspended in 50 μl of PBS were injected in the right or left front shoulder. Tumor growth was followed by caliper measurements of perpendicular diameters of the tumor. The tumor volume was estimated by the formula: tumor volume = a×b^2 /2, where a and b were the tumor length and width, respectively, in millimeters. Small animal PET studies were performed when the tumor volume reached 100 to 200 mm^3.
(§3) To perform a microCT scan by a high-resolution Inveon MicroCT scanner (Siemens Medical Solutions) before microPET scan, an anesthetized nude mouse bearing UM-SCC-22B tumor was mounted on a turntable bed that could be moved automatically in the axial direction. Whole body CT acquisition parameters were as follows: voltage 70 kVp, current 400 μA, angular sampling 1° per projection for a full 360° scan, and effective pixel size 58 μm. Scan time was approximately 12 min. The image was reconstructed in real-time by a modified Feldkamp cone bean algorithm with a Shepp-Logan filter and appropriate center offset determined prior to scanning. PET scans were performed using an Inveon microPET scanner (Siemens Medical Solutions). Tumor-bearing mice were anesthetized using isoflurane/O2 (1.5–2% v/v) and intravenously injected with 3.7 MBq (100 μCi) of [^18F]FP-Met-pep1 in a volume of 100 μl saline. For blocking experiments, [^18F]FP-Met-pep1 was co-injected with 500 μg of unlabeled Met-pep1 peptide. Each group contained four mice. The images were reconstructed by a three-dimensional ordered subsets expectation maximization (3D-OSEM) algorithm with maximum a posteriori (MAP) algorithm and the frame rates were 10 × 30s, 5 × 60s, 5 × 120s and 10 × 240s, and no correction was applied for attenuation or scatter. Static images at 1 h time point were also acquired as 10-min static images for region of interest (ROI) quantification. Image analysis was done using ASI Pro VMTM software. PET/CT images were co-registered and fused automatically with ASI software. For each microPET scan, three-dimensional ROIs were drawn over the tumor, liver, kidney, and muscle on decay-corrected whole-body coronal images. The average radioactivity concentration within a tumor or an organ was obtained from mean pixel values within the ROI volume, which were converted to counts per milliliter by using a pre-determined conversion factor.

[4] = test system: UM-SCC-22B tumor-bearing mice; experiment: MicroPET imaging, ROI quantification; assay type: in vivo
Description: as §2, §3

UM-SCC-22B cells [5] = experiment: Internalization assay (acid wash); assay type: cell-based, human; conditions: 37°C, early phase, acid wash pH 2.8
Description: as §1

[6] = Ex vivo biodistribution (gamma-counting); assay type: in vivo, mice; conditions: male, athymic nu/nu, mouse, iv, total radioactivity, 30 min after injection, mean ± SD, n = 4
Description: as §2
After microPET imaging, the blood of mice bearing UM-SCC-22B tumor xenografts was drawn from the orbital sinus, then mice were sacrificed by cervical dislocation and selected organs were excised. Blood, tumor, and major organs tissues were collected and weighed (wet weight). The radioactivity in each tissue was measured using a gamma-counter (Packard Instrument). Distribution of activity was calculated as percentage of injected dose per gram of organ (%ID/g). For each mouse, the radioactivity of the tissue samples was calibrated against a known aliquot of the injected dose and normalized to a body mass of 30 g. Values were expressed as mean ± SD for a group of four animals.

- tissue uptake at 0.5 h ([3]; liver, 30 min post-injection, read-out: liver uptake (microPET)): 11.5 ± 0.78 %ID/g
- tissue uptake at 0.5 h ([3]; tumor (UM-SCC-22B xenograft), UM-SCC-22B tumor, 30 min post injection, read-out: tumor uptake (microPET)): 4.72 ± 0.67 %ID/g
- tissue uptake at 1 h ([3]; tumor (UM-SCC-22B xenograft), UM-SCC-22B tumor, 60 min post injection): 3.83 ± 0.55 %ID/g
- tissue uptake at 2 h ([3]; tumor (UM-SCC-22B xenograft), UM-SCC-22B tumor, 120 min post injection): 3.11 ± 0.25 %ID/g
- muscle uptake (microPET) ([4]; all timepoints (30, 60, 120 min)): very low uptake
- radioactivity excreted, primarily through the renal pathway ([4]; within 2 h after injection, dynamic microPET (S1 Fig)): about 65%
- tissue uptake at 0.5 h ([6]; blood, 3.7 MBq, without blocking, read-out: blood tracer concentration): 1.55 ± 0.48 %ID/g
- tissue uptake at 0.5 h ([6]; blood, with 500 μg unlabeled peptide, read-out: blood tracer concentration, after blocking): 2.85 ± 0.76 %ID/g
- tissue uptake at 0.5 h ([6]; kidney, 3.7 MBq, blocking state not clearly stated, read-out: kidney tracer accumulation (ex vivo)): 10.5 ± 0.53 %ID/g
- tissue uptake at 0.5 h ([6]; liver, 3.7 MBq, blocking state not clearly stated, read-out: liver tracer accumulation (ex vivo)): 5.58 ± 0.45 %ID/g
- tissue uptake at 0.5 h ([6]; tumor (UM-SCC-22B xenograft), 3.7 MBq, absence of unlabeled peptide, read-out: tumor uptake (tissue sampling, gamma-counting)): 4.58 ± 0.59 %ID/g
- tissue uptake at 0.5 h ([6]; tumor (UM-SCC-22B xenograft), presence of 500 μg unlabeled peptide, read-out: tumor uptake (tissue sampling, gamma-counting), blocked): 0.88 ± 0.35 %ID/g
SMILES: CC(C)C[C@H](NC(=O)[C@@H](N)Cc1ccc(O)cc1)C(=O)N[C@@H](Cc1ccccc1)C(=O)N[C@@H](CO)C(=O)N[C@H](C(=O)N[C@@H](Cc1c[nH]cn1)C(=O)N[C@@H](Cc1c[nH]c2ccccc12)C(=O)N1CCC[C@H]1C(=O)N1CCC[C@H]1C(=O)N[C@@H](CC(C)C)C(=O)N[C@@H](CCCCNC(=O)C(C)F)C(=O)N[C@@H](C)C(=O)O)C(C)C (some centres unmarked) [[^18F]FP-Met-pep1] (H-YLFSVHWPPLK(Propanoyl(2-F))A-OH)
- tracer effluxed out of the cells (UM-SCC-22B cells [1]; 15 min): approximately 47%
- radiotracer remained bound with the cells (UM-SCC-22B cells [1]; end of incubation (60 min)): about 36%
- cell uptake in presence of unlabeled Met-pep1 (blocking) (UM-SCC-22B cells [2]; 500 μg/well unlabeled Met-pep1 pre-incubated 15 min at 37°C): dramatic inhibition of cell uptake
- cell uptake (percentage of added dose) (UM-SCC-22B cells [2]; 18.5 kBq (0.5 μCi)/well, 37°C, 30 min incubation (peak), gamma counter, mean ± SD, triplicate wells): 34.52 ± 1.34%
- fraction of observed uptake due to internalization (UM-SCC-22B cells [5]): Approximately 2/3
